Source: patent US20230365563A1, “QUINAZOLINE COMPOUND AND APPLICATION THEREOF” (SHANGHAI PHARMACEUTICALS HOLDING CO., LTD., priority 2020, published 2023)
Structures can show the parent of a compound that is named as a salt.

target: T1, KRAS-G12D and SOS1 (Homo sapiens, UniProt P01116, G12D); assay: Inhibition of KRAS-G12D/SOS1 binding (Cisbio binding kit, 665/615 ratio), Effect Embodiment A; conditions: read-out: GTP-KRAS-G12D:SOS1 IC50
T1 construct: purchased
Method: Similarly, the first dilution point of the compound to be tested was its storage solution, and the solution was 3-fold diluted, with 11+0 points of dilution. Echo was used to transfer 0.2 μL gradient diluted solution of the compounds into a 384-well plate, with 2 duplicated wells for each compound, and the final concentration of DMSO was 1%. The solution was centrifuged for 1 min at 1000 rpm/min.
IC50 of the compounds was fitted by Graphpad Prism 8 nonlinear regression equation: […]
The IC50 (half inhibitory concentration) of the compound was obtained by using the following nonlinear fitting formula: […]

T1 sequence (P01116 1-188 isoform P01116-2 G12D): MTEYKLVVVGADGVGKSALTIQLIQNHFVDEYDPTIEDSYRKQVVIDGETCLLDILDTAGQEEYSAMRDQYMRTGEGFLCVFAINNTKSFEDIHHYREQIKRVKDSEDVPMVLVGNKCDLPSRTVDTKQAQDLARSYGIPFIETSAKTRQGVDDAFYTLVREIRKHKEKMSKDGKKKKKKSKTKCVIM

Compound	IC50
CN(C)CCCn1c(=O)nc(N2CC3CCC(C2)N3)c2cc(Cl)c(-c3cc(O)cc4ccccc34)c(F)c21 (single isomer, unassigned) [Compound 74a, 4-((1R,5S)-3,8-diazabicyclo[3.2.1]octan-3-yl)-6-chloro-1-(3-(dimethylamino)propyl)-8-fluoro-7-((S or R)-3-hydroxynaphthalen-1-yl)quinazolin-2(1H)-one]	100000 nM
CN(C)CCCn1c(=O)nc(N2CC3CCC(C2)N3)c2cc(Cl)c(-c3cc(O)cc4ccccc34)c(F)c21 (single isomer, unassigned) [Compound 74b, 4-((1R,5S)-3,8-diazabicyclo[3.2.1]octan-3-yl)-6-chloro-1-(3-(dimethylamino)propyl)-8-fluoro-7-((R or S)-3-hydroxynaphthalen-1-yl)quinazolin-2(1H)-one]	> 200000 nM
CN(C)C1CN(c2nc(NCC(=N)N)c3cc(Cl)c(-c4cc(O)cc5ccccc45)c(F)c3n2)C1 (single isomer, unassigned) [Compound 76, (S or R)-2-((6-chloro-2-(3-(dimethylamino)azetidin-1-yl)-8-fluoro-7-(3-hydroxynaphthalen-1-yl)quinazolin-4-yl)amino)acetimidamide diformate]	8960 nM
CC(=O)NCCN(C)c1nc(N2CC(N(C)C)C2)nc2c(F)c(-c3cc(O)cc4ccccc34)c(Cl)cc12 (single isomer, unassigned) [Compound 84, (S or R)—N-(2-((6-chloro-2-(3-(dimethylamino)azetidin-1-yl)-8-fluoro-7-(3-hydroxynaphthalen-1-yl)quinazolin-4-yl)(methyl)amino)ethyl)acetamide]	3050 nM
CN(C)C1CN(c2nc(N3CC4CCC(C3)N4C(=N)N)c3cc(Cl)c(-c4cc(O)cc5ccccc45)c(F)c3n2)C1 (single isomer, unassigned) [Compound 85, (1R,5S)-3-((S or R)-6-chloro-2-(3-(dimethylamino)azetidin-1-yl)-8-fluoro-7-(3-hydroxynaphthalen-1-yl)quinazolin-4-yl)-3,8-diazabicyclo[3.2.1]octane-8-carboximidamide diformate]	4790 nM
CN(C)C1CN(c2nc(N3CC4CCC(C3)N4C)c3cc(Cl)c(-c4cc(O)cc5ccccc45)c(F)c3n2)C1 (single isomer, unassigned) [Compound 86, 4-((S or R)-6-chloro-2-(3-(dimethylamino)azetidin-1-yl)-8-fluoro-4-((1R,5S)-8-methyl)-3,8-diazabicyclo[3.2.1]octan-3-yl)quinazolin-7-yl)naphthalen-2-ol]	3570 nM
CC(=N)N1C2CCC1CN(c1nc(N3CC(N(C)C)C3)nc3c(F)c(-c4cc(O)cc5ccccc45)c(Cl)cc13)C2 (single isomer, unassigned) [Compound 87, 4-((S or R)-6-chloro-2-(3-(dimethylamino)azetidin-1-yl)-8-fluoro-4-((1R,5S)-8-(1-iminoethyl)-3,8-diazabicyclo[3.2.1]octan-3-yl)quinazolin-7-yl)naphthalen-2-ol trifluoroacetate]	23300 nM
Oc1cc(-c2c(Cl)cc3c(N4CC5CCC(C4)N5)nc(OCCN4CCOCC4)nc3c2F)c2ccccc2c1 (single isomer, unassigned) [Compound 121, 4-((S or R)-4-((1R,5S)-3,8-diazabicyclo[3.2.1]octan-3-yl)-6-chloro-8-fluoro-2-(2-(morpholinylethoxy)quinazolin-7-yl)naphthalen-2-oldihydrochloride]	147 nM
CN1CCOC[C@H]1COc1nc(N2CC3CCC(C2)N3)c2cc(Cl)c(-c3cc(O)cc4ccccc34)c(F)c2n1 (single isomer, unassigned) [Compound 122, 4-((S or R)-4-((1R,5S)-3,8-diazabicyclo[3.2.1]octan-3-yl)-6-chloro-8-fluoro-2-((S)-4-methylmorpholin-3-yl)methoxy)quinazolin-7-yl)naphthalen-2-ol dihydrochloride]	219 nM
CC(C)(CCOc1nc(N2CC3CCC(C2)N3)c2cc(Cl)c(-c3cc(O)cc4ccccc34)c(F)c2n1)N1CCCC1 (single isomer, unassigned) [Compound 123, 4-((S or R)-4-((1R,5S)-3,8-diazabicyclo[3.2.1]octan-3-yl)-6-chloro-8-fluoro-2-(3-methyl-3-(pyrrolidin-1-yl)butoxy)quinazolin-7-yl)naphthalen-2-ol dihydrochloride]	106 nM
CCCN(C)CCOc1nc(N2C[C@H]3CC[C@@H](C2)N3)c2cc(Cl)c(-c3cc(O)cc4ccccc34)c(F)c2n1 (single isomer, unassigned) [Compound 126, (S or R)-4-(4-((1R,5S)-3,8-diazabicyclo[3.2.1]octan-3-yl)-6-chloro-8-fluoro-2-(2-(methyl(propyl)amino)ethoxy)quinazolin-7-yl)naphthalen-2-ol dihydrochloride]	134 nM
CN(C)C1CN(c2nc(C3(C(N)=O)CN(C(=N)N)C3)c3cc(Cl)c(-c4cc(O)cc5ccccc45)c(F)c3n2)C1 (single isomer, unassigned) [Compound 145, (R or S)-1-Carbamimidoyl-3-(6-chloro-2-(3-(dimethylamino)azetidin-1-yl)-8-fluoro-7-(3-hydroxynaphthalen-1-yl)quinazolin-4-yl)azetidin-3-carboxamide ditrifluoroacetate]	5940 nM
CN(C)C1CN(c2nc(C3CN(C(=N)N)C3)c3cc(Cl)c(-c4cc(O)cc5ccccc45)c(F)c3n2)C1 (single isomer, unassigned) [Compound 146]	6930 nM
CN(C)CCCSc1nc(N2C[C@H]3CC[C@@H](C2)N3)c2cc(Cl)c(-c3cc(O)cc4ccccc34)c(F)c2n1 (single isomer, unassigned) [Compound 147, (S or R) 4-(4-((1R,5S)-3,8-diazabicyclo[3.2.1]octan-3-yl)-6-chloro-2-((3-(dimethylamino)propyl)thio)-8-fluoroquinazolin-7-yl)naphthalen-2-ol dihydrochloride]	605 nM
CN1CCC[C@H]1COc1nc(N2C3CCC2C2CCC3N2)c2cc(Cl)c(-c3cc(O)cc4ccccc34)c(F)c2n1 (single isomer, unassigned) [Compound 152a, 4-((S or R)-6-chloro-8-fluoro-2-((S)-1-methylpyrrolidin-2-yl)methoxy)-4-((1R,2R,5S,6S)-9,10-diazatricyclo[4.2.1.1^2,5]decan-9-yl)quinazolin-7-yl)naphthalen-2-ol dihydrochloride]	1050 nM
CN1CCC[C@H]1COc1nc(N2CC3CCC(C2)N3C(=O)CN)c2cc(Cl)c(-c3cc(O)cc4ccccc34)c(F)c2n1 (single isomer, unassigned) [Compound 156, 2-Amino-1-((1R,5S)-3-((S or R)-6-chloro-8-fluoro-7-(3-hydroxynaphthalen-1-yl)-2-((S)-1-methylpyrrolidin-2-yl)methoxy)quinazin-4-yl)-3,8-diazacyclo[3.2.1]octan-8-yl)ethan-1-one dihydrochloride]	621 nM

Now from value to compound:

IC50	Compound
5340 nM	CN1CCC[C@H]1COc1nc(N2CC3CCC(C2)N3)c2cc(Cl)c(-c3cc(O)c(F)c4ccccc34)c(F)c2n1 (single isomer, unassigned) [Compound 89b, (R or S)-4-(4-((1R,5S)-3,8-diazabicyclo[3.2.1]octan-3-yl)-6-chloro-8-fluoro-2-(S)-1-methylpyrrolidin-2-yl)methoxy)quinazolin-7-yl)-1-fluoronaphthalen-2-ol hydrochloride]
263 nM	Cc1ccc2[nH]ncc2c1-c1c(Cl)cc2c(N3CC4CCC(C3)N4)nc(OC[C@@H]3CCCN3C)nc2c1F (single isomer, unassigned) [Compound 90a, 4-((1R,5S)-3,8-diazabicyclo[3.2.1]octan-3-yl)-6-chloro-8-fluoro-7-((R or S)-5-methyl-1H-indazol-4-yl)-2-((S)-1-methylpyrrolidin-2-yl)methoxy)quinazoline hydrochloride]
108 nM	C[C@H]1CCCN1CCCOc1nc(N2CC3CCC(C2)N3)c2cc(Cl)c(-c3cc(O)cc4ccccc34)c(F)c2n1 (single isomer, unassigned) [Compound 108b, 4-((S or R)-4-((1R,5S)-3,8-diazabicyclo[3.2.1]octan-3-yl)-6-chloro-8-fluoro-2-(3-((S)-2-methylpyrrolidin-1-yl)propoxy)quinazolin-7-yl)naphthalen-2-ol dihydrochloride]
120 nM	CN1CCC1CCOc1nc(N2CC3CCC(C2)N3)c2cc(Cl)c(-c3cc(O)cc4ccccc34)c(F)c2n1 (single isomer, unassigned) [Compound 112b, 4-((S or R)-4-((1R,5S)-3,8-diazabicyclo[3.2.1]octan-3-yl)-6-chloro-8-fluoro-2-(2-((R or S)-1-methylazetidin-2-yl)ethoxy)quinazolin-7-yl)naphthalen-2-ol carboxylate]
965 nM	CN1CCC[C@H]1COc1nc(N2CCN[C@@H](CC#N)C2)c2cc(Cl)c(-c3cc(O)cc4ccccc34)c(F)c2n1 (single isomer, unassigned) [Compound 153a, 2-((S)-4-((S or R)-6-chloro-8-fluoro-7-(3-hydroxynaphthalen-1-yl)-2-((S)-1-methylpyrrolidin-2-yl)methoxy)quinazolin-4-yl)piperazin-2-yl)acetonitrile]
204 nM	CN(C)CCCCc1nc(N2CC3CCC(C2)N3)c2cc(Cl)c(-c3cc(O)cc4ccccc34)c(F)c2n1 (single isomer, unassigned) [Compound 154a, 4-((S or R)-4-((1R,5S)-3,8-diazabicyclo[3.2.1]octan-3-yl)-6-chloro-2-(4-(dimethylamino)butyl)-8-fluoroquinazolin-7-yl)naphthalen-2-ol dihydrochloride]
